Experimental data taken from paper PMC11428593 (Antibiotics, 2024).

Tested on: S. aureus strain USA300LAC
Experiment: Fluorescence microscopy (DAPI/Nile Red) of membrane deformation
Type: cell-based, Staphylococcus aureus
From the text: Given the high lipophilic nature and membrane-compromising effects of JC-01-074, we wondered about the possibility that the alkyl chain of JC-01-074 could be incorporated into the phospholipid bilayer, thereby destabilizing the uniform packing of the membrane phospholipids and potentially resulting in “bleb formation”, as this had been reported before. To test this idea, we cultivated the S. aureus strain USA300LAC to the mid-log phase and treated the cells with the indicated concentrations of JC-01-074 and daptomycin (as a positive control), respectively. Samples were collected at 15 and 60 mins of treatment, washed twice, and resuspended in fresh PBS. Cells were then stained with 4′,6-diamidino-2-phenylindole (DAPI) and Nile Red for 10 min, respectively. DAPI is a nucleic acid stain that binds to DNA, while Nile Red is commonly used as an inner membrane stain to quantify lipids. The cells were then mounted onto a glass slide with 1% agarose and imaged at 63× magnification via inverted confocal laser scanning microscopy. […] To rule out the possibility that these blebs were transiently formed, we further imaged the cells exposed to JC-01-074 for 60 min. […] The smaller blebs formed may have extended over the incubation time, resulting in their fusion into large blebs.
Figure 5 JC-01-074 treatment rapidly induces deformations in the S. aureus plasma membrane as indicated by the white arrows. […] Cells were collected at the indicated time points and stained with DAPI (5 µg/mL) and Nile Red (5 µg/mL) for 10 min, following which cells were imaged on 1% agarose pads. Images are representatives of three biological replicates. Scale bar = 1.25 µm.
The overnight USA300LAC cultures were diluted into the TSB media to an O.D.600nm = 0.01 and incubated under shaking conditions at 37 °C until the mid-log phase (O.D.600nm = 0.3) was reached. […] The cells were then imaged on 1% agarose gel pads and via fluorescence microscopy using a Leica SP8 confocal microscope. […] Fluorescence was detected between the wavelengths of 500–560 nm, with an 8×- line averaging.

**Q.** With CCCCCCCCCC#Cc1cccc(O)n1 [JC-01-074] as the molecule, how does the “membrane morphology after 60 min” value (0.5× and 1× MIC, 60 min, USA300LAC) read?
**A.** formation of aberrant membrane blebs

**Q.** And the “lowest concentration at which bleb formation was observed” value (USA300LAC plasma membrane, 0.5× MIC)?
**A.** 8 µg/mL

**Q.** And the “earliest time at which bleb formation was observed” value (USA300LAC, after addition of compound)?
**A.** 15 min
